Among the data in ChEMBL document CHEMBL1155084 (J Med Chem, 2008) are IC50 values, retold here.

Test [1] concerns the target Mitogen-activated protein kinase 14 (Homo sapiens, UniProt Q16539). Description: Inhibition of p38alpha.
In another test the test system is Blood. Description: Inhibition of TNFalpha release in human whole blood. The format is functional, tissue-based.

Sequence of Mitogen-activated protein kinase 14 (Q16539 whole entry): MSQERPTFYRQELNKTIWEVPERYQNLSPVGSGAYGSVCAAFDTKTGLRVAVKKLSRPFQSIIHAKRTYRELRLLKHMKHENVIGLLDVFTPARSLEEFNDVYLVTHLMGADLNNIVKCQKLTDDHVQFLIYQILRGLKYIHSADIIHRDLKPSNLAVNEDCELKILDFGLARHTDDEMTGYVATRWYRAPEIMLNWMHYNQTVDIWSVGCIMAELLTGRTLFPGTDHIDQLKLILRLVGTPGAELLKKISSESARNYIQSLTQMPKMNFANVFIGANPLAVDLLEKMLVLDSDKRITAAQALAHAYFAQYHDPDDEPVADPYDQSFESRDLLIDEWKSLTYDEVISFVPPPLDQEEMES

Usually IC50 stands for the concentration that inhibits the measured activity by half. Higher therefore signals weaker potency in that assay. Turning to `CSc1nc(-c2ccnc(NC3CCCCC3)c2)c(-c2ccc(F)cc2)[nH]1`, the IC50 was found to be 0.02 µM in test [1] and 0.362 µM with Blood. As to `CSc1nc(-c2ccc(F)cc2)c(-c2ccnc(NCc3ccc(C(C)(C)C)cc3)c2)[nH]1`, the IC50 in test [1] was 1.34 µM; in the test on Blood it was 52.6 µM. The corresponding values for `CSc1nc(-c2ccc(F)cc2)c(-c2ccnc(OCc3cccs3)c2)[nH]1` are 0.424 µM and 38.4 µM.

Consider `CSc1nc(-c2ccc(F)cc2)c(-c2ccnc(NCc3cc4ccccc4s3)c2)[nH]1`, for which the IC50 came to 0.314 µM in test [1] and 55.5 µM with Blood.

For `CSc1nc(-c2cccc(C(F)(F)F)c2)c(-c2ccnc(NCc3ccccc3)c2)[nH]1`, the concentration for half-maximal inhibition (IC50) in test [1] was found to be 0.282 µM; with Blood, 38.1 µM. The corresponding values for `CSc1nc(-c2ccc(F)cc2)c(-c2ccnc(F)c2)[nH]1` are 0.559 µM and 29.9 µM. `COCCn1c(SC)nc(-c2ccc(F)cc2)c1-c1ccnc(Nc2ccccc2)c1` registered an IC50 in test [1] of 0.051 µM. Same read-out and setting: next, `CSc1nc(-c2ccnc(NC3CCOCC3)c2)c(-c2ccc(F)cc2)[nH]1`: 0.005 µM. With `CCSc1nc(-c2cccc(C(F)(F)F)c2)c(-c2ccnc(F)c2)[nH]1`, the IC50 was 0.657 µM in test [1] and 71.5 µM in the test on Blood. Take `COCCn1c(SC)nc(-c2ccc(F)cc2)c1-c1ccnc(NCC(C)O)c1` (configuration not stated): the half-maximal inhibitory concentration (IC50) in test [1] was found to be 0.146 µM; with Blood, 6.38 µM.

Regarding `CSc1nc(-c2ccc(F)cc2)c(-c2ccnc(NCc3ccncc3)c2)[nH]1`, the 50% inhibitory concentration (IC50) in test [1] stood at 0.119 µM; in the test on Blood, 6.22 µM. The corresponding values for `CSc1nc(-c2cccc(C(F)(F)F)c2)c(-c2ccnc(NCC(C)c3ccccc3)c2)[nH]1` (configuration not stated) are 0.093 µM and 23 µM. The corresponding values for `CSc1nc(-c2ccc(F)cc2)c(-c2ccnc(NC(CO)C(C)C)c2)[nH]1` (configuration not stated) are 0.034 µM and 1.06 µM. The corresponding values for `CSc1nc(-c2cccc(C(F)(F)F)c2)c(-c2ccnc(N[C@H](C)C3CCCCC3)c2)[nH]1` are 0.036 µM and 9.89 µM. `COCCn1c(SC)nc(-c2ccc(F)cc2)c1-c1ccnc(NC2CCOCC2)c1`: the concentration for half-maximal inhibition (IC50) is 0.038 µM in test [1] and 5.88 µM in the test with Blood.

In turn, `Fc1ccc(-c2nc(SCc3ccccc3)[nH]c2-c2ccnc(F)c2)cc1` had an IC50 in test [1] of 0.258 µM.

`COCCn1c(SC)nc(-c2ccc(F)cc2)c1-c1ccnc(N[C@H](C)C2CCCCC2)c1`: the IC50 in test [1] was determined as 0.359 µM; in the test on Blood it was 28 µM. For `CSc1nc(-c2ccc(F)cc2)c(-c2ccnc(NC(C)CO)c2)[nH]1` (configuration not stated), in that order: 0.006 µM and 0.439 µM.

In the case of `CSc1nc(-c2ccnc(OCC3CCCO3)c2)c(-c2ccc(F)cc2)[nH]1` (configuration not stated), the concentration for half-maximal inhibition (IC50) was 0.542 µM in test [1] and 11.2 µM in the test with Blood. For `CSc1nc(-c2cccc(C(F)(F)F)c2)c(-c2ccnc(NCc3cccs3)c2)[nH]1`, in that order: 0.239 µM and 26.8 µM. For `CSc1nc(-c2cccc(C(F)(F)F)c2)c(-c2ccnc(N[C@H]3CC[C@H](O)CC3)c2)[nH]1`, the IC50 was 0.011 µM in test [1] and 1.68 µM in the test on Blood. Consider `CSc1nc(-c2ccnc(NCCCO)c2)c(-c2ccc(F)cc2)[nH]1`, for which the 50% inhibitory concentration (IC50) in test [1] worked out at 0.015 µM; with Blood, 0.68 µM. The corresponding values for `CSc1nc(-c2ccc(F)cc2)c(-c2ccnc(OCc3ccccc3)c2)[nH]1` are 0.436 µM and 44.7 µM. The corresponding values for `CSc1nc(-c2ccc(F)cc2)c(-c2ccnc(OC(C)c3ccccc3)c2)[nH]1` (configuration not stated) are 0.639 µM and 44.3 µM. The corresponding values for `CCC(CO)Nc1cc(-c2[nH]c(SC)nc2-c2ccc(F)cc2)ccn1` (configuration not stated) are 0.01 µM and 0.239 µM. Regarding `CSc1nc(-c2ccc(F)cc2)c(-c2ccnc(N[C@H]3CC[C@H](O)CC3)c2)[nH]1`, the concentration for half-maximal inhibition (IC50) turned out to be 0.003 µM in test [1] and 0.386 µM in the test on Blood. For the compound `CSc1nc(-c2ccc(F)cc2)c(-c2ccnc(NCCC(C)C)c2)[nH]1`, the IC50 in test [1] was found to be 0.09 µM; in the test with Blood, 2.43 µM. Turning to `CSc1nc(-c2ccc(F)cc2)c(-c2ccnc(N[C@H]3CC[C@H](C)CC3)c2)[nH]1`, the half-inhibitory concentration (IC50) in test [1] is 0.015 µM; with Blood it was 15.8 µM.

`CSc1nc(-c2ccc(F)cc2)c(-c2ccnc(NCCC(C)(C)C)c2)[nH]1`: the IC50 came to 0.126 µM in test [1] and 4.54 µM in the test on Blood. `COCCn1c(SC)nc(-c2ccc(F)cc2)c1-c1ccnc(N[C@H](C)CO)c1` registered an IC50 in test [1] of 0.485 µM. `CSc1nc(-c2ccc(F)cc2)c(-c2ccnc(Cl)c2)[nH]1` showed an IC50 in test [1] of 1.04 µM. `CSc1nc(-c2ccc(F)cc2)c(-c2ccnc(NCc3ccc(C)o3)c2)[nH]1`: the figures for the half-maximal inhibitory concentration (IC50) (in test [1]; in the test on Blood) were 0.113 µM and 7.43 µM, respectively. On to `CSc1nc(-c2ccc(F)cc2)c(-c2ccnc(NCCO)c2)[nH]1`, for which the half-maximal inhibitory concentration (IC50) turned out to be 0.045 µM in test [1] and 2.04 µM with Blood. The corresponding values for `CSc1nc(-c2ccc(F)cc2)c(-c2ccnc(NC(C)CC(C)C)c2)[nH]1` (configuration not stated) are 0.026 µM and 0.7 µM. For `CSc1nc(-c2ccc(F)cc2)c(-c2ccnc(NC3CCC(C)CC3)c2)[nH]1` (mixture of isomers), in that order: 0.02 µM and 5.4 µM. The corresponding values for `CSc1nc(-c2cccc(C(F)(F)F)c2)c(-c2ccnc(NCCCO)c2)[nH]1` are 0.061 µM and 5.19 µM. For the compound `Fc1ccc(-c2nc(SCc3ccccc3)[nH]c2-c2ccnc(Cl)c2)cc1`, the 50% inhibitory concentration (IC50) is 2.9 µM in test [1] and 50.9 µM in the test with Blood. The corresponding values for `CSc1nc(-c2ccc(F)cc2)c(-c2ccnc(OC(C)CCCC(C)C)c2)[nH]1` (configuration not stated) are 0.641 µM and 42.7 µM.

For `Fc1cc(-c2[nH]c(SCc3ccccc3)nc2-c2cccc(C(F)(F)F)c2)ccn1`, the IC50 in test [1] turned out to be 1.95 µM; with Blood it was 83.6 µM. Turning to `CSc1nc(-c2cccc(C(F)(F)F)c2)c(-c2ccnc(NC(C)c3ccccc3)c2)[nH]1` (configuration not stated), the half-maximal inhibitory concentration (IC50) was determined as 0.199 µM in test [1] and 12.2 µM with Blood. The corresponding values for `CSc1nc(-c2ccc(F)cc2)c(-c2ccnc(NC(Cc3ccccc3)c3ccccc3)c2)[nH]1` (configuration not stated) are 0.348 µM and 43.5 µM. Turning to `CSc1nc(-c2ccc(F)cc2)c(-c2ccnc(N[C@H]3CC[C@@H](C)CC3)c2)[nH]1`, the figures for the IC50 (in test [1]; with Blood) were 0.031 µM and 3.68 µM, respectively. For `COCCn1c(SC)nc(-c2ccc(F)cc2)c1-c1ccnc(NC(C)CO)c1` (configuration not stated), in that order: 0.292 µM and 17.4 µM. For `CSc1nc(-c2ccc(F)cc2)c(-c2ccnc(N[C@@H](C)C3CCCCC3)c2)[nH]1`, the results for the IC50 (in test [1]; in the test with Blood) were 0.153 µM and 27.6 µM, respectively. In turn, `COCCn1c(SC)nc(-c2ccc(F)cc2)c1-c1ccnc(NC2CCCC[C@H]2O)c1` (some centres not stated) had an IC50 in test [1] of 0.211 µM. This counts as sub-micromolar.

Consider `CSc1nc(-c2ccc(F)cc2)c(-c2ccnc(NC(Cc3ccccc3)Cc3ccccc3)c2)[nH]1`, for which the 50% inhibitory concentration (IC50) came to 2.15 µM in test [1] and 43.6 µM with Blood.

For the compound `CSc1nc(-c2cccc(C(F)(F)F)c2)c(-c2ccnc(NCc3ccco3)c2)[nH]1`, the concentration for half-maximal inhibition (IC50) in test [1] is 0.191 µM; with Blood it was 14.8 µM.

In the case of `CSc1nc(-c2ccc(F)cc2)c(-c2ccnc(NCc3cccc4ccccc34)c2)[nH]1`, the IC50 in test [1] worked out at 0.171 µM; with Blood, 28 µM. In the case of `CSc1nc(-c2ccc(F)cc2)c(-c2ccnc(NCc3ccccc3)c2)[nH]1`, half-maximal inhibition in test [1] (IC50) was put at 0.139 µM. On to `CCSc1nc(-c2ccc(F)cc2)c(-c2ccnc(F)c2)[nH]1`, for which, in test [1], the IC50 was found to be 0.213 µM.
